Results reported in patent US20230017045A1, “PYRIDINE AND PYRIMIDINE CARBOXYLATE HERBICIDES AND METHODS OF USE THEREOF” (Dow AgroSciences LLC, priority 2017, published 2023).
Where two headings read alike, the source gives them in different places.

System: test plant species
Assay: Post-emergent herbicidal activity test (greenhouse, foliar spray, visual growth reduction)
Assay type: in vivo
Details: post-emergence, 336 h, 140 g ai/ha
In short: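 Scoring used a 0 to 100 percent visual scale of growth reduction against solvent-treated controls, read 14 d after spraying. Applications went onto plants at first or second true leaf stage, 187 L/ha, with crop oil concentrate and X-77 surfactant in the carrier. Post-treatment watering was by subirrigation to avoid wash-off.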

[1] = ECHCG: barnyardgrass (Echinochloa crus-galli), 14 days after application, read-out: Visual Growth Reduction (%) 14 Days After Application, ECHCG
[2] = IPOHE: ivy-leaf morning glory (Ipomoea hederacea), 14 days after application, read-out: Visual Growth Reduction (%) 14 Days After Application, IPOHE
[3] = KCHSC: kochia (Bassia scoparia), 14 days after application, read-out: Visual Growth Reduction (%) 14 Days After Application, KCHSC
[4] = ORYSA: rice (Oryza sativa), 14 days after application, read-out: Visual Growth Reduction (%) 14 Days After Application, ORYSA
[5] = SETFA: giant foxtail (Setaria faberi), 14 days after application, read-out: Visual Growth Reduction (%) 14 Days After Application, SETFA
[6] = SORVU: grain sorghum (Sorghum vulgare), 14 days after application, read-out: Visual Growth Reduction (%) 14 Days After Application, SORVU
[7] = STEME: common chickweed (Stellaria media), 14 days after application, read-out: Visual Growth Reduction (%) 14 Days After Application, STEME
[8] = TRZAS: wheat, spring (Triticum aestivum), 14 days after application, read-out: Visual Growth Reduction (%) 14 Days After Application, TRZAS
[9] = blackgrass (Alopecurus myosuroides), 14 Days After Application, read-out: Visual Growth Reduction (%) ALOMY
[10] = canada thistle (Cirsium arvense), 14 Days After Application, read-out: Visual Growth Reduction (%) CIRAR
[11] = crabgrass (Digitaria sanguinalis), 14 Days After Application, read-out: Visual Growth Reduction (%) DIGSA
[12] = lambsquarters (Chenopodium album), 14 Days After Application, read-out: Visual Growth Reduction (%) CHEAL
[13] = redroot pigweed (Amaranthus retroflexus), 14 Days After Application, read-out: Visual Growth Reduction (%) AMARE
[14] = wild oat (Avena fatua), 14 Days After Application, read-out: Visual Growth Reduction (%) AVEFA
[15] = yellow nutsedge (Cyperus esculentus), 14 Days After Application, read-out: Visual Growth Reduction (%) CYPES

Compound | pest or weed control at 140 g/ha [1] | pest or weed control at 140 g/ha [2] | pest or weed control at 140 g/ha [3] | pest or weed control at 140 g/ha [4] | pest or weed control at 140 g/ha [5] | pest or weed control at 140 g/ha [6] | pest or weed control at 140 g/ha [7] | pest or weed control at 140 g/ha [8] | pest or weed control at 140 g/ha [9] | pest or weed control at 140 g/ha [10] | pest or weed control at 140 g/ha [11] | pest or weed control at 140 g/ha [12] | pest or weed control at 140 g/ha [13] | pest or weed control at 140 g/ha [14] | pest or weed control at 140 g/ha [15] | further results
COC(=O)c1nc(-c2cc3c(cc2Cl)OC(F)(F)O3)ncc1Cl [F232, Methyl 5-chloro-2-(6-chloro-2,2-difluorobenzo[d][1,3]dioxol-5-yl)pyrimidine-4-carboxylate] | 75 to 84% | 95 to 100% | 45 to 59% | 0 to 29% | 75 to 84% | 85 to 94% | 45 to 59% | 45 to 59% | 0 to 29% | 85 to 94% | 95 to 100% | 95 to 100% | 60 to 74% | 0 to 29% | 0 to 29% | 
COC(=O)c1nc(-c2ccc(C3CC3)cc2Cl)ccc1Cl [F15, methyl 3-chloro-6-(2-chloro-4-cyclopropylphenyl)picolinate] |  |  |  |  |  |  |  |  |  |  |  |  |  |  |  | pest or weed control at 140 g/ha (ALOMY: blackgrass (Alopecurus myosuroides), 14 days after application, read-out: Visual Growth Reduction (%) 14 Days After Application, ALOMY): 0 to 29%; pest or weed control at 140 g/ha (AMARE: redroot pigweed (Amaranthus retroflexus), 14 days after application, read-out: Visual Growth Reduction (%) 14 Days After Application, AMARE): 30 to 44%; pest or weed control at 140 g/ha (AVEFA: wild oat (Avena fatua), 14 days after application, read-out: Visual Growth Reduction (%) 14 Days After Application, AVEFA): 0 to 29%; pest or weed control at 140 g/ha (CHEAL: lambsquarters (Chenopodium album), 14 days after application, read-out: Visual Growth Reduction (%) 14 Days After Application, CHEAL): 45 to 59%; pest or weed control at 140 g/ha (CIRAR: canada thistle (Cirsium arvense), 14 days after application, read-out: Visual Growth Reduction (%) 14 Days After Application, CIRAR): 0 to 29%; pest or weed control at 140 g/ha (CYPES: yellow nutsedge (Cyperus esculentus), 14 days after application, read-out: Visual Growth Reduction (%) 14 Days After Application, CYPES): 30 to 44%; pest or weed control at 140 g/ha (DIGSA: crabgrass (Digitaria sanguinalis), 14 days after application, read-out: Visual Growth Reduction (%) 14 Days After Application, DIGSA): 0 to 29%; pest or weed control at 140 g/ha (barnyardgrass (Echinochloa crus-galli), 14 Days After Application, read-out: Visual Growth Reduction (%) ECHCG): 0 to 29%; pest or weed control at 140 g/ha (common chickweed (Stellaria media), 14 Days After Application, read-out: Visual Growth Reduction (%) STEME): 0 to 29%; pest or weed control at 140 g/ha (giant foxtail (Setaria faberi), 14 Days After Application, read-out: Visual Growth Reduction (%) SETFA): 0 to 29%; pest or weed control at 140 g/ha (ivy-leaf morning glory (Ipomoea hederacea), 14 Days After Application, read-out: Visual Growth Reduction (%) IPOHE): 95 to 100%; pest or weed control at 140 g/ha (johnsongrass (Sorghum vulgare), 14 Days After Application, read-out: Visual Growth Reduction (%) SORVU): 0 to 29%; pest or weed control at 140 g/ha (kochia (Bassia scoparia), 14 Days After Application, read-out: Visual Growth Reduction (%) KCHSC): 0 to 29%; pest or weed control at 140 g/ha (rice (Oryza sativa), 14 Days After Application, read-out: Visual Growth Reduction (%) ORYSA): 0 to 29%; pest or weed control at 140 g/ha (wheat, spring (Triticum aestivum), 14 Days After Application, read-out: Visual Growth Reduction (%) TRZAS): 0 to 29%
O=C(O)c1nc(-c2ccc(C(F)(F)F)c(Cl)c2)ccc1Cl [F314, 3-Chloro-6-(3-chloro-4-(trifluoromethyl)phenyl) picolinic acid] | 0 to 29% | 95 to 100% | 0 to 29% | 0 to 29% | 0 to 29% | 75 to 84% | 0 to 29% | 0 to 29% | 0 to 29% | 45 to 59% | 75 to 84% | 30 to 44% | 0 to 29% | 0 to 29% | 0 to 29% | 
O=C(O)c1nc(-c2c(Cl)cc(C(F)(F)F)cc2[N+](=O)[O-])ccc1Cl [F224, 3-Chloro-6-(2-chloro-6-nitro-4-(trifluoromethyl)phenyl)picolinic acid] | 0 to 29% | 95 to 100% | 45 to 59% | 45 to 59% | 45 to 59% | 60 to 74% | 0 to 29% | 0 to 29% | 0 to 29% | 45 to 59% | 75 to 84% | 95 to 100% | 85 to 94% | 0 to 29% | 0 to 29% | 
CCCCOC(=O)c1nc(-c2ccc(Br)c(OC)c2F)ccc1Cl [F283, Butyl 6-(4-bromo-2-fluoro-3-methoxyphenyl)-3-chloropicolinate] | 0 to 29% | 0 to 29% | 75 to 84% | 0 to 29% | 0 to 29% | 0 to 29% | 0 to 29% | 0 to 29% | 0 to 29% | 85 to 94% | 0 to 29% | 85 to 94% | 30 to 44% | 0 to 29% | 30 to 44% | 
